Earlier results in patent US12064484B2, “Compositions for introducing RNA into cells” (ETHRIS GMBH, priority 2013, dated 2024).

System: cell culture
Settings: cholesterol-polyamine carbamates

Row | Compound | reporter gene expression (beta galactosidase plasmid DNA)
1 | CC(C)CCCC(C)C1CCC2C3CC=C4CC(OC(=O)NCCNCCCNCCN)CCC4(C)C3CCC12C (centres unmarked) [ethyl/propyl/ethyl] | three- to tenfold less efficient
2 | CC(C)CCCC(C)C1CCC2C3CC=C4CC(OC(=O)NCCCNCCCCNCCCN)CCC4(C)C3CCC12C (centres unmarked) [propyl/butyl/propyl] | by far the highest reporter gene expression
